From US7759337B2, “Phthalazine compounds and methods of use” (Amgen Inc., priority 2005, dated 2010)

Test system: production of TNF by monocytes activated with bacterial lipopolysaccharide (LPS)
Test: Lipopolysaccharide-activated monocyte TNF production assay
Format: cell-based
Settings: Homo sapiens; whole blood monocyte assay (LPS induced TNF release)
Procedure, shortened: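 Adherent human PBMC-derived monocytes preincubated 60 min with nine two-fold compound dilutions, then stimulated with E. coli K532 LPS (30 ng/mL in the added medium) for 4 h at 37 °C. Supernatant TNF measured by sandwich ELISA; IC50 is the compound concentration halving TNF production, from second-order polynomial fits.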

SMILES | IC50 [µM]
Cc1ccc(C(=O)NC2CC2)cc1-c1ccc2c(-c3ccc(S(C)(=O)=O)cc3C)nncc2c1 [Example 256, N-cyclopropyl-4-methyl-3-{1-[2-methyl-4-(methylsulfonyl)phenyl]phthalazin-6-yl}benzamide] | ≤ 5
Cc1ccc(C(=O)NC2CC2)cc1-c1ccc2c(N)nncc2c1 [Example 141, 3-(1-aminophthalazin-6-yl)-N-cyclopropyl-4-methylbenzamide] | ≤ 5
Cc1ccccc1-c1nncc2cc(Oc3cccc(C(=O)NC4CC4)c3)ccc12 [Example 352, N-cyclopropyl-3-{[1-(2-methylphenyl)phthalazin-6-yl]oxy}benzamide] | ≤ 5
C[C@H]1COCCN1c1nncc2cc(-c3c(Cl)ccc4c(NCC(F)(F)F)noc34)ccc12 [Example 400, 6-chloro-7-{1-[(3S)-3-methylmorpholin-4-yl]phthalazin-6-yl}-N-(2,2,2-trifluoroethyl)-1,2-benzisoxazol-3-amine] | ≤ 5
Cc1ccc(C(=O)NC2CC2)cc1-c1ccc2c(-c3ccccc3F)nncc2c1 [Example 246, N-cyclopropyl-3-[1-(2-fluorophenyl)phthalazin-6-yl]-4-methylbenzamide] | ≤ 5
Cc1cc(F)ccc1-c1nncc2cc(Oc3ccc(F)cc3)ccc12 [Example 341, 1-(4-fluoro-2-methylphenyl)-6-(4-fluorophenoxy)phthalazine] | ≤ 5
Cc1ccc(C(N)=O)cc1-c1ccc2c(N3CCSCC3)nncc2c1 [Example 128, 4-methyl-3-(1-thiomorpholin-4-ylphthalazin-6-yl)benzamide] | ≤ 5
CSc1ccc(-c2nncc3cc(-c4cc(C(=O)NC5CC5)ccc4C)ccc23)c(C)c1 [Example 261, N-cyclopropyl-4-methyl-3-{1-[2-methyl-4-(methylsulfanyl)phenyl]phthalazin-6-yl}benzamide] | ≤ 5
Cc1ccc(C(N)=O)cc1-c1ccc2c(-c3ccc(CN4CCOCC4)cc3)nncc2c1 [Example 203, 4-methyl-3-{1-[4-(morpholin-4-ylmethyl)phenyl]phthalazin-6-yl}benzamide] | ≤ 5
COCCNc1nncc2cc(-c3cc(C(N)=O)ccc3C)ccc12 [Example 189, 3-{1-[(2-methoxyethyl)amino]phthalazin-6-yl}-4-methylbenzamide] | ≤ 5
O=C(NC1CC1)c1cccc(-c2ccc3c(N4CCOCC4)nncc3c2)c1 [Example 69, N-Cyclopropyl-3-(1-morpholin-4-ylphthalazin-6-yl)benzamide] | ≤ 5
CNc1ccc(-c2nncc3cc(-c4cc(C(=O)NC5CC5)ccc4C)ccc23)c(OC)n1 [Example 206, N-cyclopropyl-3-{1-[2-methoxy-6-(methylamino)pyridin-3-yl]phthalazin-6-yl}-4-methylbenzamide] | ≤ 5
CNc1noc2c(-c3ccc4c(NC(C)C)nncc4c3)c(C)ccc12 [Example 372, N-isopropyl-6-[6-methyl-3-(methylamino)-1,2-benzisoxazol-7-yl]phthalazin-1-amine] | ≤ 5
Cc1ccc(-c2nncc3cc(-c4cc(C(=O)NC5CC5)ccc4C)ccc23)cc1 [Example 131, N-cyclopropyl-4-methyl-3-[1-(4-methylphenyl)phthalazin-6-yl]benzamide] | ≤ 5
Cc1ccc(C(=O)NC2CC2)cc1-c1ccc2c(-c3ccc(C(C)(C)C(=O)O)cc3)nncc2c1 [Example 205, 2-[4-(6-{5-[(cyclopropylamino)carbonyl]-2-methylphenyl}phthalazin-1-yl)phenyl]-2-methylpropanoic acid] | ≤ 5
Cc1ccc(C(=O)NC2CC2)cc1-c1ccc2c(N3CCC(=O)CC3)nncc2c1 [Example 58, N-cyclopropyl-4-methyl-3-[1-(4-oxopiperidin-1-yl)phthalazin-6-yl]benzamide] | ≤ 5
Cc1ccc(C(N)=O)cc1-c1ccc2c(N3CCN4C(=O)CC[C@H]4C3)nncc2c1 [Example 285, 3-{1-[(8aS)-6-oxohexahydropyrrolo[1,2-a]pyrazin-2(1H)-yl]phthalazin-6-yl}-4-methylbenzamide] | ≤ 5
Cc1ccc(C(=O)NC2CC2)cc1-c1ccc2c(N3CCC[C@@H]3C)nncc2c1 [Example 295, N-cyclopropyl-4-methyl-3-{1-[(2S)-2-methylpyrrolidin-1-yl]phthalazin-6-yl}benzamide] | ≤ 5
Cc1ccc(C(N)=O)cc1-c1ccc2c(N3CCOC[C@@H]3C)nncc2c1 [Example 184, 4-methyl-3-{1-[(3S)-3-methylmorpholin-4-yl]phthalazin-6-yl}benzamide] | ≤ 5
Cc1ccc(C(=O)NC2CC2)cc1-c1ccc2c(N3CCN4C(=O)CC[C@@H]4C3)nncc2c1 [Example 267, 3-{1-[(8aR)-6-oxohexahydropyrrolo[1,2-a]pyrazin-2(1H)-yl]phthalazin-6-yl}-N-cyclopropyl-4-methylbenzamide] | ≤ 5
Cc1ccc(C(=O)NC2CC2)cc1-c1ccc2c(N3CCC4(CC3)OCCO4)nncc2c1 [Example 167, N-cyclopropyl-3-[1-(1,4-dioxa-8-azaspiro[4.5]dec-8-yl)phthalazin-6-yl]-4-methylbenzamide] | ≤ 5
COc1nncc2cc(-c3cc(C(=O)NC4CC4)ccc3C)ccc12 [Example 169, N-cyclopropyl-3-(1-methoxyphthalazin-6-yl)-4-methylbenzamide] | ≤ 5
Cc1ccc(C(=O)NC2CC2)cc1-c1ccc2c(N3CCN[C@H](C)C3)nncc2c1 [Example 140, N-cyclopropyl-4-methyl-3-{1-[(3R)-3-methylpiperazin-1-yl]phthalazin-6-yl}benzamide] | ≤ 5
COc1ccccc1-c1nncc2cc(Oc3ccc(C)cc3)ccc12 [Example 334, 1-(2-methoxyphenyl)-6-(4-methylphenoxy)phthalazine] | ≤ 5
Cc1ccc(C(=O)NC2CC2)cc1-c1ccc2c(NC3CCCCC3)nncc2c1 [Example 158, 3-[1-(cyclohexylamino)phthalazin-6-yl]-N-cyclopropyl-4-methylbenzamide] | ≤ 5
COc1ncc(-c2nncc3cc(-c4cc(C(=O)NC5CC5)ccc4C)ccc23)cn1 [Example 264, N-cyclopropyl-3-[1-(2-methoxypyrimidin-5-yl)phthalazin-6-yl]-4-methylbenzamide] | ≤ 5
CNc1noc2c(-c3ccc4c(N5CCOC[C@@H]5C)nncc4c3)c(C)ccc12 [Example 397, N,6-dimethyl-7-(1-((S)-3-methylmorpholino)phthalazin-6-yl)benzo[d]isoxazol-3-amine] | ≤ 5
Cc1ccc(C(=O)NC2CC2)cc1-c1ccc2c(N3C(C)CC[C@@H]3C(=O)NC(C)C)nncc2c1 (stereo partly drawn) [Example 68, (2R)-1-(6-(5-(Cyclopropylcarbamoyl)-2-methylphenyl)phthalazin-1-yl)-N-isopropyl-5-methylpyrrolidine-2-carboxamide] | ≤ 5
Cc1cc(C(=O)O)sc1-c1ccc2c(N3CCOCC3)nncc2c1 [Example 47, 4-methyl-5-(1-morpholinophthalazin-6-yl)thiophene-2-carboxylic acid] | ≤ 5
Cc1ccc(C(=O)NC2CC2)cc1-c1ccc2c(N3CCNC(=O)C3)nncc2c1 [Example 163, N-cyclopropyl-4-methyl-3-[1-(3-oxopiperazin-1-yl)phthalazin-6-yl]benzamide] | ≤ 5
